This test relates to PMA-induced release of IL-6R from PBMCs from patients suffering from rheumatoid arthritis. As to the kind of experiment: ELISA-based IL-6R release assay, PBMCs from RA-patients. The following applies: Homo sapiens, PBMC; chimeric antibodies (CHO) 1 μg/ml; Batimastat 10 μM; PMA 25 ng/ml, 24 hours. It counts as cell-based. The method, then:
In contrast to Example 34, where the inhibitory effects of the antibodies of the present disclosure on PMA-induced release of endogenous IL-6R from primary human material obtained from healthy donors using peripheral blood mononuclear cells (PBMCs) were tested, this analysis was conducted to analyze the inhibitory effects of the antibodies of the present disclosure on PMA-induced release of endogenous IL-6R from primary human material obtained from patients suffering from rheumatoid arthritis (RA-patients).
In brief, on day 1, Nunc black MaxiSorp® 96-well plates (Thermo Fisher Scientific, USA) were coated overnight with 100 μl per well of mouse anti-human IL-6R capture antibody (provided as part of the DuoSet ELISA kit) at 4 μg/ml TBS at 4° C. […] Using an infinite M1000 (Tecan Group, Switzerland) microplate reader, the fluorescence of each well was collected at an excitation wavelength of 435 nm and an emission wavelength of 555 nm.
On the technique in general: An ELISA detects its analyte on a solid surface through an enzyme-linked reagent.

Structures are written as SMILES.

As to `CNC(=O)[C@H](Cc1ccccc1)NC(=O)[C@H](CC(C)C)[C@H](CSc1cccs1)C(=O)NO` [Batimastat], the inhibition (in general, the relative decrease from the control value, in per cent) at 10 µM was determined as 104%.

The values are drawn from patent US20240174744A1, “METHODS OF TREATMENT USING PROTEIN BINDERS TO IRHOM2 EPITOPES” (SCIRHOM GMBH, priority 2021, published 2024).
